# Source: paper PMC7587356, “High-Throughput Screening for Inhibitors of the SARS-CoV-2 Protease Using a FRET-Biosensor” (Molecules, 2020)
# Like-named read-outs stand apart in the source and are kept apart here.
# Molecular target: SARS-CoV-2 3CLpro (Severe acute respiratory syndrome coronavirus 2, UniProt P0DTD1)
# Assay: biochemical
# Format: biochemical
# Parameters: Replicate_1 / Replicate_2 / mean / mean (LOPAC_screen_w_protease): unit not given here
# Conditions: for inhibition at 5 µM: 4 h
# [1] = sheet LOPAC_screen_w_protease, LOPAC1280 primary screen with protease, 5 µM compound, mean of the two replicates
# [2] = sheet LOPAC_screen_w_protease, LOPAC1280 primary screen with protease, 5 µM compound, replicate 1
# [3] = sheet LOPAC_screen_w_protease, LOPAC1280 primary screen with protease, 5 µM compound, replicate 2
# [4] = sheet LOPAC_screen_w_protease, LOPAC1280 at 5 µM, mean of two replicates
# [5] = sheet LOPAC_screen_w_protease, LOPAC1280 at 5 µM, replicate 1
# [6] = sheet LOPAC_screen_w_protease, LOPAC1280 at 5 µM, replicate 2
# [7] = LOPAC1280 primary screen with protease, 5 µM compound, mean of the two replicates
# [8] = LOPAC1280 primary screen with protease, 5 µM compound, replicate 1
# [9] = LOPAC1280 primary screen with protease, 5 µM compound, replicate 2
# [10] = sheet LOPAC_screen_w_protease, primary screen of LOPAC1280 at 5 µM with protease, mean of the two replicates
# [11] = sheet LOPAC_screen_w_protease, primary screen of LOPAC1280 at 5 µM with protease, replicate 1
# [12] = sheet LOPAC_screen_w_protease, primary screen of LOPAC1280 at 5 µM with protease, replicate 2
# [13] = sheet LOPAC_screen_w_protease, primary screen with protease, mean of two replicates
# [14] = sheet LOPAC_screen_w_protease, primary screen with protease, replicate 1
# [15] = sheet LOPAC_screen_w_protease, primary screen with protease, replicate 2
structure (smiles),measurement,setting,value
CN1C[C@H](O)[C@@H](O)[C@H](O)[C@H]1CO [N-Methyl-1-deoxynojirimycin],mean,[1],4.2727
same,Replicate_1,[2],3.9484
same,Replicate_2,[3],4.597
CN[C@H](CC(=O)O)C(=O)O [N-Methyl-D-aspartic acid],inhibition at 5 µM,"sheet LOPAC_screen_w_protease, primary screen of LOPAC1280 at 5 µM with protease, mean of the two replicates, read-out: mean",3.42%
same,inhibition at 5 µM,"sheet LOPAC_screen_w_protease, primary screen of LOPAC1280 at 5 µM with protease, replicate 1, read-out: Replicate_1",4.04%
same,inhibition at 5 µM,"sheet LOPAC_screen_w_protease, primary screen of LOPAC1280 at 5 µM with protease, replicate 2, read-out: Replicate_2",2.81%
CNC(=O)c1cc2c(cn1)[nH]c1ccccc12 [N-Methyl-beta-carboline-3-carboxamide],mean,[4],1.084
same,Replicate_1,[5],1.698
same,Replicate_2,[6],0.4701
CNCCc1ccc(O)c(O)c1.Cl [N-Methyldopamine hydrochloride],mean,[4],1.304
same,Replicate_1,[5],0.8088
same,Replicate_2,[6],1.799
CCCCCCCC/C=C\CCCCCCCC(=O)NCCc1ccc(O)c(O)c1 [N-Oleoyldopamine],mean (LOPAC_screen_w_protease),[7],2.025
same,Replicate_1 (LOPAC_screen_w_protease),[8],0.1379
same,Replicate_2 (LOPAC_screen_w_protease),[9],3.912
CCCCCCCC/C=C\CCCCCCCC(=O)NCCO [N-Oleoylethanolamine],mean,[10],3.1732
same,Replicate_1,[11],4.947
same,Replicate_2,[12],1.4
O=C(O)c1ccccc1Nc1ccccc1 [N-Phenylanthranilic acid],inhibition at 5 µM,"sheet LOPAC_screen_w_protease, primary screen with protease, 5 µM, mean of two replicates, read-out: mean",0.157%
same,inhibition at 5 µM,"sheet LOPAC_screen_w_protease, primary screen with protease, 5 µM, replicate 1, read-out: Replicate_1",0.635%
same,inhibition at 5 µM,"sheet LOPAC_screen_w_protease, primary screen with protease, 5 µM, replicate 2, read-out: Replicate_2",-0.322%
O=C(O)CCC(=O)N1CCC[C@H]1C(=O)O [N-Succinyl-L-proline],mean,"sheet LOPAC_screen_w_protease, LOPAC1280 primary screen at 5 µM, with protease, mean of two replicates",-1.024
same,Replicate_1,"sheet LOPAC_screen_w_protease, LOPAC1280 primary screen at 5 µM, with protease, replicate 1",1.826
same,Replicate_2,"sheet LOPAC_screen_w_protease, LOPAC1280 primary screen at 5 µM, with protease, replicate 2",-3.873
CCCCC/C=C\C/C=C\C/C=C\C/C=C\CCCC(=O)NCC(=O)O [N-arachidonylglycine],mean,"sheet LOPAC_screen_w_protease, primary screen with protease, 5 µM, mean of two replicates",0.3785
same,Replicate_1,"sheet LOPAC_screen_w_protease, primary screen with protease, 5 µM, replicate 1",1.728
same,Replicate_2,"sheet LOPAC_screen_w_protease, primary screen with protease, 5 µM, replicate 2",-0.9708
NC(=O)C1=CN([C@@H]2O[C@H](COP(=O)([O-])OP(=O)([O-])OC[C@H]3O[C@@H](n4cnc5c(N)ncnc54)[C@H](OP(=O)([O-])[O-])[C@@H]3O)[C@@H](O)[C@H]2O)C=CC1.[Na+].[Na+].[Na+].[Na+] [NADPH tetrasodium],mean,[4],1.2074
same,Replicate_1,[5],1.812
same,Replicate_2,[6],0.6031
Br.COc1ccccc1N1CCN(CCCCN2C(=O)c3ccccc3C2=O)CC1 [NAN-190 hydrobromide],mean (LOPAC_screen_w_protease),[7],1.999
same,Replicate_1 (LOPAC_screen_w_protease),[8],4.031
same,Replicate_2 (LOPAC_screen_w_protease),[9],-0.03323
CCCN(CC1CC1)c1nc(C)nc(Nc2c(Cl)cc(Cl)cc2Cl)c1Cl [NBI 27914],mean,[13],2.264
same,Replicate_1,[14],4.203
same,Replicate_2,[15],0.3255
NS(=O)(=O)c1cccc2c1c([N+](=O)[O-])cc1nc([O-])c([O-])nc12.[Na+].[Na+] [NBQX disodium],mean (LOPAC screen with protease),"sheet LOPAC_screen_w_protease, primary screen at 5 µM, mean of two replicates",8.586
same,Replicate_1 (LOPAC screen with protease),"sheet LOPAC_screen_w_protease, primary screen at 5 µM, replicate 1",5.7201
same,Replicate_2 (LOPAC screen with protease),"sheet LOPAC_screen_w_protease, primary screen at 5 µM, replicate 2",11.4514
O=C(O)/C=C1\CCCc2ccccc2C1O (stereo not drawn) [NCS-382],mean,[1],5.8931
same,Replicate_1,[2],5.187
same,Replicate_2,[3],6.599
O=C(Nc1cc(C(=O)Nc2ccc(S(=O)(=O)[O-])cc2S(=O)(=O)[O-])cc(C(=O)Nc2ccc(S(=O)(=O)[O-])cc2S(=O)(=O)[O-])c1)Nc1cc(C(=O)Nc2ccc(S(=O)(=O)[O-])cc2S(=O)(=O)[O-])cc(C(=O)Nc2ccc(S(=O)(=O)[O-])cc2S(=O)(=O)[O-])c1.[Na+].[Na+].[Na+].[Na+].[Na+].[Na+].[Na+].[Na+] [NF449 octasodium salt],mean,[10],4.044
same,Replicate_1,[11],4.589
same,Replicate_2,[12],3.499
"O=C(Nc1cccc(C(=O)Nc2ccc(S(=O)(=O)O)c3cc(S(=O)(=O)O)cc(S(=O)(=O)O)c23)c1)Nc1cccc(C(=O)Nc2ccc(S(=O)(=O)O)c3cc(S(=O)(=O)O)cc(S(=O)(=O)O)c23)c1 [NF 023, reference compound]",mean,[1],6.11
same,Replicate_1,[2],5.845
same,Replicate_2,[3],6.375
CC(=O)O.NC(=NCCC[C@H](N)C(=O)O)NO [NG-Hydroxy-L-arginine acetate],mean,[13],2.232
same,Replicate_1,[14],2.489
same,Replicate_2,[15],1.975
